Experimental data from publication PMC11235171, “Microproteins encoded by noncanonical ORFs are a major source of tumor-specific antigens in a liver cancer patient meta-cohort” (Science Advances, 2024).

What was measured:
HHD-DR1 mice [1] = experiment: IFN-γ intracellular cytokine staining (flow cytometry) of CD4+ and CD8+ T cells after peptide immunization; format: in vivo, mouse; settings: splenocytes of immunized mice stimulated with peptide 10 μM, 4 hours, GolgiStop/GolgiPlug; cell density plots
Protocol: (§1) Eight-week-old female HHD-DR1 mice, transgenic for human HLA-A*02:01 molecules ([82]), were used. After study approval by the ethics review committee (reference no. 036-21), mice were bred and housed under pathogen-free conditions in the animal facility of the Center for Applied Medical Research (CIMA). Mice (n = 4 per group) were immunized with peptides (100 nmol per peptide), polyinosinic:polycytidylic acid (50 μg per mouse), and αCD40 (50 μg per mouse). The peptides and adjuvants were administered simultaneously via subcutaneous injection of 100 μl of the mixture resuspended in phosphate-buffered saline. Mice received a boost on day 7 and were euthanized on day 14.
Splenocytes were stimulated with the peptides (10 μM) in the presence of GolgiStop and GolgiPlug (BD Biosciences). Four hours later, cells were surface stained with the following antibodies: CD3ε-Percp-Cy5 (145-2 C11), CD4-FITC (RM4-5), and CD8-BV421 (53-6.7) from BioLegend. Next, cells were fixed and permeabilized using BD Cytofix/Cytoperm Fixation/Permeablization Kit and intracellularly stained with IFNγ-PE (XMG1.2) antibodies. Samples were acquired with a Cytoflex (Beckman Coulter) flow cytometer and were analyzed using FlowJo software (Tree Star).

HHD-DR1 mice [2] = experiment: IFN-γ ELISPOT on splenocytes of peptide-immunized HLA-A*02:01 transgenic mice; format: in vivo, mouse; settings: for IFN-γ signal after peptide immunization (immunogenicity), in words: HLA-A*02:01 / HLA-DRB1*01 transgenic mice immunized twice, T cell response measured at day 14 by IFN-γ ELISPOT
Protocol: as §1
The spleens of immunized mice were processed to measure the number of IFN-γ secreting cells. Splenocytes (8 × 10^5 cells per well) were stimulated for 24 hours with peptides (10 μg/ml). The number of IFN-γ secreting cells was quantified by ImmunoSpot automated counter (Cellular Technology Limited) using the Spot 3 CTL CellCounting software.

| Sequence | IFN-γ producing CD8+ versus CD4+ T cells (ICS), in words (HHD-DR1 mice [1]) | IFN-γ signal after peptide immunization (immunogenicity), in words (HHD-DR1 mice [2]) | number of IFN-γ secreting cells (IFNγSFC) (HHD-DR1 mice [2]; HHD-DR1 mice, n = 4 per group, 100 nmol peptide + poly I:C + αCD40 s.c., boost day 7, spleens day 14, splenocytes stimulated 24 hours with peptide 10 μg/ml, all four replicates) |
| --- | --- | --- | --- |
| GLFHIYHKI | signal for CD8+ cells only | strong IFN-γ signal | – |
| WMSLDWELYV | signal for CD8+ cells only | strong IFN-γ signal | > 1000 IFNγSFC per 8 × 10^5 cells |
